Reference: patent US11512049B2, “Pleuromutilin 2-[(diphenylmethyl)thio] acetic acid ester with anti-drug resistant bacteria activity and a method of preparing the same” (SHAANXI UNIVERSITY OF SCIENCE AND TECHNOLOGY, priority 2021, dated 2022)

Assays:
Type in all cases: cell-based
Settings in all cases: for Zone of inhibition: 30 μg/tablet paper, 37° C., 24 h, ≥17 mm sensitive, 15-16 mm intermediary, ≤14 mm drug resistance; for Inhibitory effect (in words): summary of FIGS. 1-3 and Table 1
[1] = tested on: MRSA 18-171 (multi-resistant Staphylococcus aureus 171); experiment: Paper diffusion method drug sensitivity test, MRSA 18-171
Procedure: (§1) The antimicrobial efficacy was determined by a paper diffusion method drug sensitivity test.
(§2) Experimental strains: multi-resistant Staphylococcus aureus 171, multi-resistant Staphylococcus aureus 575, multi-resistant Staphylococcus aureus 596. The experimental strains were provided by Huashan Hospital Affiliated to Fudan University (Institute of Antibiotic of Fudan University).
(§3) Drug sensitive paper: The drug sensitive paper is a special drug sensitive paper with a diameter of 6.35 mm and a water absorption of 0.02 mL. The control drug was vancomycin (30 μg/tablet); the test drug was pleuromutilin 2-[(diphenylmethyl)thio]acetic acid ester (30 μg/tablet).
(§4) The experimental strains were inoculated in non-selective medium and placed in air at 37° C. for 24 h. Pick a single colony that grows well and inoculate it into broth medium, incubate at 35° C.±2° C. for 6 hours, and use LA broth medium to calibrate the concentration of the bacterial solution to 0.5 Mie turbidimetric tube ([…]). A bacterial suspension is obtained.
(§5) LB dry powder was weighed, sterilized at 103.4 Kpa, 121.3° C. high-pressure steam for 15 min, and then placed it in a 40° C.-50° C. water bath. A sterile empty plate (inner diameter 9 cm) was placed on the surface of the ultra-clean table water table, and […] to the plate. The thickness of each plate was 3 mm to 4 mm. After the plate was cooled at room temperature, it was stored in the refrigerator at 2° C.-8° C. A sterile cotton swab was used to dip the bacterial solution and to evenly coat the surface of the LB plate 3 times. After inoculation of the bacterial suspension, the LB plate was dried at room temperature for 3 min to 5 min. Sterile forceps were used to closely attach the antibacterial drug paper to the dish. The dish was put upside down and placed in a 37° C. incubator for 24 h. The results were observed by measuring the diameter. Taking 0.5% DMSO solution as a negative control, the antibacterial activity is expressed by the diameter of the inhibition zone. The inhibition zone ≥17 mm, sensitive; the inhibition zone of 15 mm-16 mm, intermediary; the inhibition zone ≤14 mm, drug resistance.

[2] = tested on: MRSA 18-575 (multi-resistant Staphylococcus aureus 575); experiment: Paper diffusion method drug sensitivity test, MRSA 18-575
Procedure: as §1, §2, §3, §4, §5

[3] = tested on: MRSA 18-596 (multi-resistant Staphylococcus aureus 596); experiment: Paper diffusion method drug sensitivity test, MRSA 18-596
Procedure: as §1, §2, §3, §4, §5

With `C=C[C@]1(C)C[C@@H](OC(=O)COC(=O)CSC(c2ccccc2)c2ccccc2)[C@]2(C)[C@H](C)CC[C@]3(CCC(=O)[C@H]32)[C@@H](C)[C@@H]1O` the Zone of inhibition [1] was 21 mm, the “Inhibitory effect (in words)” value [1] was “strong inhibitory effects” and the Zone of inhibition [2] was 23 mm. For the same compound, the “Inhibitory effect (in words)” value [2] was “strong inhibitory effects”, the Zone of inhibition [3] was 25 mm and the “Inhibitory effect (in words)” value [3] was “strong inhibitory effects”.
With `O=C(O)CSC(c1ccccc1)c1ccccc1` [2-[(Diphenylmethyl)thio]acetic acid] the Zone of inhibition [1] was 0 mm, the “Inhibitory effect (in words)” value [1] was “no inhibitory effect” and the Zone of inhibition [2] was 0 mm. For the same compound, the “Inhibitory effect (in words)” value [2] was “no inhibitory effect”, the Zone of inhibition [3] was 0 mm and the “Inhibitory effect (in words)” value [3] was “no inhibitory effect”.
`C=C[C@]1(C)C[C@@H](OC(=O)CO)[C@]2(C)[C@H](C)CC[C@]3(CCC(=O)[C@H]32)[C@@H](C)[C@@H]1O` [Pleuromutilin] was tested, and the Zone of inhibition [1] was 0 mm, the “Inhibitory effect (in words)” value [1] was “no inhibitory effect” and the Zone of inhibition [2] was 0 mm. The “Inhibitory effect (in words)” value [2] was “no inhibitory effect”, the Zone of inhibition [3] was 0 mm and the “Inhibitory effect (in words)” value [3] was “no inhibitory effect”.
In the case of `CN[C@H](CC(C)C)C(=O)N[C@H]1C(=O)N[C@@H](CC(N)=O)C(=O)N[C@H]2C(=O)N[C@H]3C(=O)N[C@H](C(=O)N[C@H](C(=O)O)c4cc(O)cc(O)c4-c4cc3ccc4O)[C@H](O)c3ccc(c(Cl)c3)Oc3cc2cc(c3O[C@@H]2O[C@H](CO)[C@@H](O)[C@H](O)[C@H]2O[C@H]2C[C@](C)(N)[C@H](O)[C@H](C)O2)Oc2ccc(cc2Cl)[C@H]1O` [Vancomycin, vancomycin], the Zone of inhibition [1] is reported as 17 mm, the Zone of inhibition [2] is reported as 18 mm and the Zone of inhibition [3] is reported as 21 mm.
